Reference: paper PMC4667195, “Tumor-selective peptide-carrier delivery of Paclitaxel increases in vivo activity of the drug” (Scientific Reports, 2015)

What was measured:
[1] = system: SKOV-3 human ovary adenocarcinoma cells; test: Cytotoxicity (MTT growth inhibition) in SKOV-3; assay type: cell-based; settings: SK-OV-3, 1 h incubation, wash, then 6 days at 37 °C without drug, 128 pM to 10 μM, performed twice in triplicate
Procedure: (§1) Growth inhibition was assessed by 3-(4,5-dimethylthiazol-2-yl)-2,5-diphenyltetrazolium bromide (MTT). […] The experiment was performed twice in triplicate.
(§2) EC50 values were calculated by non-linear regression analysis using Graph Pad Prism 5.03 software.

[2] = system: MDA-MB 231 human breast adenocarcinoma cells; test: Cytotoxicity (MTT growth inhibition) in MDA-MB 231; assay type: cell-based; settings: 1 h incubation, wash, then 6 days at 37 °C without drug, 128 pM to 10 μM, performed twice in triplicate
Procedure: as §1, §2

[3] = system: orthotopic MDA-MB 231-luc2 tumors; test: Tumor growth in orthotopic MDA-MB 231-luc2 mouse model; assay type: in vivo, athymic nude mice; settings: 2.86 μmol/Kg i.v. every 4 days
Procedure: MDA-MB 231-luc2 cells were injected orthotopically in the mammary fat pads of female athymic nude mice. […] Tumor growth was monitored by measuring volumes every 4 days with a caliber rule and by imaging luciferase reporter expression in tumor cells with a Photon Imager system at 8-day intervals.
Orthotopic breast tumors were established by injecting 1 × 10^6 MDA-MB 231-luc2 cells into the fourth mammary fat pad of athymic nude mice (Harlan Laboratories). Tumor growth was monitored every four days by measuring two perpendicular diameters with caliber. Tumor volume (V) was calculated by the following equation: V = (a^2 × b)/2, where “a” is the width of the tumor (small diameter), and b the length (large diameter), both in millimeters[22].
Treatments were started when the tumors reached at least 80 mm^3 in volume.
Tumor growth was also monitored by imaging luciferase reporter expression in tumor cells. To track MDA-MB 231-luc2 cells, bioluminescent optical imaging was performed using a Photon Imager system (Biospace Lab, Paris, France) including a cooled charge-coupled device (CCD) camera. Prior to imaging, mice were anaesthetized by intraperitoneal (i.p.) injection of 275 mg/kg Avertin. […] Bioluminescence was quantified by automatic measurement. ROI optical images were analyzed with M3 Vision software (Biospace Lab, Paris, France).

CC(=O)O[C@H]1C(=O)[C@@]2(C)[C@H]([C@H](OC(=O)c3ccccc3)[C@]3(O)C[C@H](OC(=O)[C@H](O)[C@@H](NC(=O)c4ccccc4)c4ccccc4)C(C)=C1C3(C)C)[C@]1(OC(C)=O)CO[C@@H]1C[C@@H]2O [PTX, Paclitaxel]
EC50 [1]: 29 nM
EC50 [2]: 62 nM
Slope of average tumor volume (percentage of the volume at day 4) versus time ([3]; days 4, 8, 12 and 16, n = 5 mice): 5.5
Effect on tumor growth (in words) ([3]; during treatment, days 4 to 16): clear reduction in tumor growth with respect to controls, but not tumor regression
